The values that follow come from article PMC6271259, “Design, Synthesis and SAR Study of Novel Trisubstituted Pyrimidine Amide Derivatives as CCR4 Antagonists” (Molecules, 2014).

One data set concerns the target T1, CCR4 (Homo sapiens, UniProt P51679).
T1 construct: expressed in transfected cells; host or cells: L1.2 cells transfected with pcDI-CCR4
T1 sequence (P51679 1-360): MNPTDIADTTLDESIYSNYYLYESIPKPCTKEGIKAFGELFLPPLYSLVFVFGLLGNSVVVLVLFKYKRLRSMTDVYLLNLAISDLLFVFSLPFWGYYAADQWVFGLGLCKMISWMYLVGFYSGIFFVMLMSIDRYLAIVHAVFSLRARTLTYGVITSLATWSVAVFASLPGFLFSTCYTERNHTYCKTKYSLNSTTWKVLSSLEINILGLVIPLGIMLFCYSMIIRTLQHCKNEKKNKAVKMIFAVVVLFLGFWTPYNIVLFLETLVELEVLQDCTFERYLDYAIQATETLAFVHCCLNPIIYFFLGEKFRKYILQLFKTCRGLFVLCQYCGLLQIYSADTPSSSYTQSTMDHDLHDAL
Description: CCR4-MDC chemotaxis inhibition assay (48-well Boyden chamber, L1.2 cells transfected with pcDI-CCR4). The format is cell-based. The settings on record: for IC50: MDC 10 ng/mL, L1.2 cells transfected with pcDI-CCR4, compound preincubation 30 min at 37 °C, chamber 6 h, assayed three times, NA = no significant inhibition; for Chemotaxis inhibition activity against CCR4 (in words, compared with compound 1): CCR4-MDC chemotaxis inhibition assay, compound 1 as positive control. As for the experimental part: All the newly synthesized compounds were evaluated by a CCR4-MDC chemotaxis inhibition assay. Compound 1 was employed as the positive control.
The quantitative chemotaxis assays were performed using 48-well Boyden chambers (Neutroprobe, Bethesda, MD, USA) with polyvinylpyrrolidone-free polycarbonate filters with 5 μm pores. The MDC (Peprotech, Rocky Hill, NJ, USA) with a final concentration of 10 ng/mL was added into the lower wells. The L1.2 cells that were transfected with pcDI-CCR4 were suspended in assay buffer at 3 × 10^6 cells/mL, incubated with various final concentrations of compounds for 30 min at 37 °C, and then added to the upper wells. The chamber was incubated for 6 h at 37 °C in an atmosphere containing 5% CO2, and then the upper chambers were removed. The chemotaxis buffer in the lower wells was then harvested and mixed with 25 μL of the luciferase-containing reagent, Cell-Titer Glo. The number of L1.2 cells in the lower well medium was measured with a Veritas Microplate Luminometer (Turner BioSystems, Sunnyvale, CA, USA). All samples were assayed three times. The negative control samples and solvent control samples were defined as the cells migrating toward the lower wells in the absence of chemokine, and as the cells migrating toward the MDC-containing lower wells in the absence of compound in the presence of DMSO, respectively. The percentage of inhibition was determined by the following equation: inhibition = (C − A)/(C − B) × 100%, where A indicates the number of cells in the sample, B indicates the number of cells in the negative control sample and C indicates the number of cells in the solvent control sample. The results are expressed as an IC50 value (sample concentration that inhibits 50% chemotaxis) and calculated using Origin 8.0 software.

For another data set, the system named is CCR4-positive cells. Also on record: method as in earlier work. The settings on record: migration induced by MDC, TARC, and CKLF1; cited from earlier work.

`O=C([C@H]1CCCCN1)N1CCN(c2nc(Cl)cc(NCc3ccc(Cl)cc3Cl)n2)CC1` [Compound 1] showed an IC50 against CCR4 of 0.078 ± 0.013 µM. In addition, in the data set on CCR4-positive cells, the “Inhibition of migration of CCR4-positive cells” value was “inhibit the migration of CCR4-positive cells”.
On to `O=C(c1ccccn1)N1CCN(c2nc(Cl)cc(NCc3ccc(Cl)cc3Cl)n2)CC1` [Compound 6a, 6-Chloro-2-[4-(pyridin-2-yl)carbonylpiperazino]-N-(2,4-dichlorobenzyl)pyrimidin-4-amine], for which, on CCR4, the “Chemotaxis inhibition activity against CCR4 (in words, compared with compound 1)” value is listed as “did not result in significant inhibition activity”.
The compound `O=C(C1CCCCC1)N1CCN(c2nc(Cl)cc(NCc3ccc(Cl)cc3Cl)n2)CC1` [Compound 6b, 6-Chloro-2-(4-cyclohexylcarbonylpiperazino)-N-(2,4-dichlorobenzyl)pyrimidin-4-amine] yielded a melting point of 175.3 to 177.1 °C. Besides, on CCR4, the “Chemotaxis inhibition activity against CCR4 (in words, compared with compound 1)” value is “did not result in significant inhibition activity”.
`CN(C)CC(=O)N1CCN(c2nc(Cl)cc(NCc3ccc(Cl)cc3Cl)n2)CC1` [Compound 6c, 6-Chloro-2-[4-(N,N-dimethylaminomethyl)carbonylpiperazino]-N-(2,4-dichlorobenzyl)pyrimidin-4-amine] returned a melting point of 166.5 to 168.5 °C. The IC50 against CCR4 was 0.064 ± 0.015 µM.
With `O=C([C@H]1CCCCN1)N1CCN(c2nc(Cl)cc(NCc3ccc(Cl)cc3)n2)CC1` [Compound 6d, (R)-6-Chloro-2-[4-(piperidin-2-yl)carbonylpiperazino]-N-(4-chlorobenzyl)pyrimidin-4-amine], on CCR4, the “Chemotaxis inhibition activity against CCR4 (in words, compared with compound 1)” value is “significantly reduced activity” and the IC50 came out at 0.458 ± 0.051 µM.
`O=C([C@H]1CCCCN1)N1CCN(c2nc(Cl)cc(NCc3ccc(F)cc3F)n2)CC1` [Compound 6e] showed a melting point of 87.2 to 89 °C. In addition, at CCR4, the “Chemotaxis inhibition activity against CCR4 (in words, compared with compound 1)” value is “slightly reduced activity” and the IC50 amounted to 0.094 ± 0.017 µM.
With `O=C([C@H]1CCCCN1)N1CCN(c2nc(NCc3ccc(Cl)cc3Cl)cc(N3CCCCC3)n2)CC1` [Compound 7a, (R)-2-[4-(Piperidin-2-yl)carbonylpiperazino]-N-(2,4-dichlorobenzyl)-6-piperidino pyrimidin-4-amine], at CCR4, the “Chemotaxis inhibition activity against CCR4 (in words, compared with compound 1)” value is on record as “relatively poorer activity” and half-maximal inhibition (IC50) was put at 0.133 ± 0.021 µM.
`O=C([C@H]1CCCCN1)N1CCN(c2nc(NCc3ccc(Cl)cc3Cl)cc(N3CCOCC3)n2)CC1` [Compound 7b, (R)-2-[4-(Piperidin-2-yl)carbonylpiperazino]-N-(2,4-dichlorobenzyl)-6-morpholino pyrimidin-4-amine]: the melting point fell in the range of 167.8 to 169.5 °C. Moreover, at CCR4, the “Chemotaxis inhibition activity against CCR4 (in words, compared with compound 1)” value is “relatively poorer activity” and the concentration for half-maximal inhibition (IC50) is 0.395 ± 0.066 µM.
`Cc1cc(NCc2ccc(Cl)cc2Cl)nc(N2CCN(C(=O)[C@H]3CCCCN3)CC2)n1` [Compound 12a, (R)-2-[4-(Piperidin-2-yl)carbonylpiperazino]-N-(2,4-dichlorobenzyl)-6-methylpyrimidin-4-amine] showed a melting point of 82.6 to 84.5 °C. At CCR4, this compound yielded an IC50 of 0.077 ± 0.013 µM.
As for `Cc1cc(NCc2ccc(Cl)cc2Cl)nc(N2CCN(C(=O)CN(C)C)CC2)n1` [Compound 12b, 2-[4-(N,N-dimethylaminomethyl)carbonylpiperazino]-N-(2,4-dichlorobenzyl)-6-methyl pyrimidin-4-amine], on CCR4, the IC50 was determined as 0.069 ± 0.015 µM.
Compound `Cc1cc(NCc2ccc(Cl)cc2Cl)nc(N2CCN(C(=O)C3CCN(C)CC3)CC2)n1` [Compound 12c, 2-[4-(N-methylpiperidin-4-yl)carbonylpiperazino]-N-(2,4-dichlorobenzyl)-6-methylpyrimidin-4-amine] displayed a melting point of 146.4 to 148 °C. Besides, at CCR4, the “Chemotaxis inhibition activity against CCR4 (in words, compared with compound 1)” value was “relatively weak activity” and the IC50 was determined as 0.178 ± 0.028 µM.
Compound `Cc1cc(NCc2ccc(Cl)cc2Cl)nc(N2CCN(C(=O)[C@H]3CCCO3)CC2)n1` [Compound 12d, (R)-2-[4-(Tetrahydrofuran-2-yl)carbonylpiperazino]-N-(2,4-dichlorobenzyl)-6-methylpyrimidin-4-amine] displayed a melting point of 124.3 to 125.8 °C. Further, on CCR4, the “Chemotaxis inhibition activity against CCR4 (in words, compared with compound 1)” value is “relatively weak activity” and the IC50 worked out at 0.235 ± 0.045 µM.

Usually IC50 stands for the concentration that gives 50% inhibition. The low end stands for inhibition by little substance, the high end for a need for much substance. For orientation: melting point means the temperature of the solid-liquid transition.
